Assay results taken from PubChem BioAssay (NCI).
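All cell lines were grown in 96-well plates and treated with compound for 48 hours. TGI denotes the concentration required for complete inhibition of growth.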

Legend:
Test in all cases: DTP human tumour cell line panel, 48 h
SK-MEL-2 melanoma = test system: SK-MEL-2 melanoma
SF-268 CNS = test system: SF-268 CNS
SK-MEL-5 melanoma = test system: SK-MEL-5 melanoma
SN12C renal = test system: SN12C renal
HS 578T breast = test system: HS 578T breast
RPMI-8226 leukemia = test system: RPMI-8226 leukemia
HCT-116 colon = test system: HCT-116 colon
SR leukemia = test system: SR leukemia
NCI-H460 lung = test system: NCI-H460 lung
NCI-H226 lung = test system: NCI-H226 lung
MALME-3M melanoma = test system: MALME-3M melanoma
ACHN renal = test system: ACHN renal
HCT-15 colon = test system: HCT-15 colon
CAKI-1 renal = test system: CAKI-1 renal
A498 renal = test system: A498 renal
MDA-N = test system: MDA-N
SNB-19 CNS = test system: SNB-19 CNS
MDA-MB-435 = test system: MDA-MB-435
OVCAR-3 ovarian = test system: OVCAR-3 ovarian
MDA-MB-231 breast = test system: MDA-MB-231 breast
NCI/ADR-RES ovarian = test system: NCI/ADR-RES ovarian
SF-295 CNS = test system: SF-295 CNS
A549 NSCLC = test system: A549 NSCLC
SK-MEL-28 melanoma = test system: SK-MEL-28 melanoma
CCRF-CEM leukemia = test system: CCRF-CEM leukemia
K-562 leukemia = test system: K-562 leukemia
SF-539 CNS = test system: SF-539 CNS
TK-10 renal = test system: TK-10 renal
DU-145 prostate = test system: DU-145 prostate
OVCAR-4 ovarian = test system: OVCAR-4 ovarian
SNB-75 CNS = test system: SNB-75 CNS
HCC-2998 colon = test system: HCC-2998 colon
OVCAR-8 ovarian = test system: OVCAR-8 ovarian
RXF 393 renal = test system: RXF 393 renal
UACC-257 melanoma = test system: UACC-257 melanoma
NCI-H522 lung = test system: NCI-H522 lung
M14 melanoma = test system: M14 melanoma
COLO 205 colon = test system: COLO 205 colon
NCI-H23 lung = test system: NCI-H23 lung
T-47D breast = test system: T-47D breast
HT29 colon = test system: HT29 colon
HOP-92 NSCLC = test system: HOP-92 NSCLC
SW-620 colon = test system: SW-620 colon
U251 CNS = test system: U251 CNS
IGROV1 ovarian = test system: IGROV1 ovarian
786-0 renal = test system: 786-0 renal
MOLT-4 leukemia = test system: MOLT-4 leukemia
BT-549 breast = test system: BT-549 breast
HOP-62 NSCLC = test system: HOP-62 NSCLC
KM12 colon = test system: KM12 colon
HL-60(TB) leukemia = test system: HL-60(TB) leukemia
UACC-62 melanoma = test system: UACC-62 melanoma
MCF7 breast = test system: MCF7 breast
OVCAR-5 ovarian = test system: OVCAR-5 ovarian
EKVX NSCLC = test system: EKVX NSCLC
LOX IMVI melanoma = test system: LOX IMVI melanoma
PC-3 prostate = test system: PC-3 prostate
SK-OV-3 ovarian = test system: SK-OV-3 ovarian
UO-31 renal = test system: UO-31 renal

COc1cc2c(/C=C3/C(=O)N(c4ccccc4)c4ccccc43)c(Cl)[nH]c2cc1C showed a TGI (SK-MEL-2 melanoma) of 8.25 µM, a TGI (SF-268 CNS) of over 53.8 µM and a TGI (SK-MEL-5 melanoma) of 8.35 µM. It also gave a TGI (SN12C renal) of 6.29 µM, a TGI (HS 578T breast) of over 100 µM and a TGI (RPMI-8226 leukemia) of 7.01 µM. The TGI (HCT-116 colon) was 16.6 µM, the TGI (SR leukemia) was 30.5 µM and the TGI (NCI-H460 lung) was 9.04 µM. For the same compound, the TGI (NCI-H226 lung) was over 100 µM, the TGI (MALME-3M melanoma) was 19 µM and the TGI (ACHN renal) was over 49.2 µM. It also gave a TGI (HCT-15 colon) of 11.4 µM, a TGI (CAKI-1 renal) of over 59.5 µM and a TGI (A498 renal) of over 71.4 µM. For the same compound, the TGI (MDA-N) was 5.52 µM, the TGI (SNB-19 CNS) was over 54.6 µM and the TGI (MDA-MB-435) was 3.55 µM. It also gave a TGI (OVCAR-3 ovarian) of 9.66 µM, a TGI (MDA-MB-231 breast) of 27 µM and a TGI (NCI/ADR-RES ovarian) of 6.49 µM. It also gave a TGI (SF-295 CNS) of over 22.3 µM, a TGI (A549 NSCLC) of over 38.4 µM and a TGI (SK-MEL-28 melanoma) of over 100 µM. The TGI (CCRF-CEM leukemia) was over 38.5 µM, the TGI (K-562 leukemia) was over 100 µM and the TGI (SF-539 CNS) was 5.86 µM. It also gave a TGI (TK-10 renal) of 12.8 µM, a TGI (DU-145 prostate) of 9.82 µM and a TGI (OVCAR-4 ovarian) of 6.55 µM. For the same compound, the TGI (SNB-75 CNS) was 18.9 µM, the TGI (HCC-2998 colon) was 8.37 µM and the TGI (OVCAR-8 ovarian) was over 31.6 µM. The TGI (RXF 393 renal) was over 81.4 µM, the TGI (UACC-257 melanoma) was 21.3 µM and the TGI (NCI-H522 lung) was 6.24 µM. The TGI (M14 melanoma) was 12.9 µM, the TGI (COLO 205 colon) was 7.05 µM and the TGI (NCI-H23 lung) was 7.81 µM. The TGI (T-47D breast) was 7.5 µM, the TGI (HT29 colon) was over 31 µM and the TGI (HOP-92 NSCLC) was over 78.4 µM. It also gave a TGI (SW-620 colon) of over 100 µM, a TGI (U251 CNS) of over 33.3 µM and a TGI (IGROV1 ovarian) of over 25.8 µM. For the same compound, the TGI (786-0 renal) was over 44.6 µM, the TGI (MOLT-4 leukemia) was 9 µM and the TGI (BT-549 breast) was 7.56 µM. For the same compound, the TGI (HOP-62 NSCLC) was over 23.6 µM, the TGI (KM12 colon) was 8.07 µM and the TGI (HL-60(TB) leukemia) was over 23.1 µM. The TGI (UACC-62 melanoma) was 27.9 µM, the TGI (MCF7 breast) was over 79 µM and the TGI (OVCAR-5 ovarian) was over 40.5 µM. For the same compound, the TGI (EKVX NSCLC) was over 31.4 µM, the TGI (LOX IMVI melanoma) was 10.2 µM and the TGI (PC-3 prostate) was over 33.3 µM. It also gave a TGI (SK-OV-3 ovarian) of 4.78 µM and a TGI (UO-31 renal) of over 26.9 µM.
Work on Cc1cc(=O)oc2cc(O)ccc12 yielded a TGI (SK-MEL-2 melanoma) of over 100 µM, a TGI (SF-268 CNS) of over 100 µM and a TGI (SK-MEL-5 melanoma) of over 100 µM. It also gave a TGI (SN12C renal) of over 100 µM, a TGI (HS 578T breast) of over 100 µM and a TGI (RPMI-8226 leukemia) of over 100 µM. For the same compound, the TGI (HCT-116 colon) was over 100 µM, the TGI (SR leukemia) was over 100 µM and the TGI (NCI-H460 lung) was over 100 µM. For the same compound, the TGI (NCI-H226 lung) was over 100 µM, the TGI (MALME-3M melanoma) was over 100 µM and the TGI (ACHN renal) was over 100 µM. The TGI (HCT-15 colon) was over 100 µM, the TGI (CAKI-1 renal) was over 100 µM and the TGI (A498 renal) was over 100 µM. The TGI (MDA-N) was over 100 µM, the TGI (SNB-19 CNS) was over 100 µM and the TGI (MDA-MB-435) was over 100 µM. It also gave a TGI (OVCAR-3 ovarian) of over 100 µM, a TGI (MDA-MB-231 breast) of over 100 µM and a TGI (NCI/ADR-RES ovarian) of over 100 µM. It also gave a TGI (SF-295 CNS) of over 100 µM, a TGI (A549 NSCLC) of over 100 µM and a TGI (SK-MEL-28 melanoma) of over 100 µM. The TGI (CCRF-CEM leukemia) was over 100 µM, the TGI (K-562 leukemia) was over 100 µM and the TGI (SF-539 CNS) was over 100 µM. For the same compound, the TGI (TK-10 renal) was over 100 µM, the TGI (DU-145 prostate) was over 100 µM and the TGI (OVCAR-4 ovarian) was over 100 µM. The TGI (SNB-75 CNS) was over 100 µM, the TGI (HCC-2998 colon) was over 100 µM and the TGI (OVCAR-8 ovarian) was over 100 µM. For the same compound, the TGI (RXF 393 renal) was over 100 µM, the TGI (UACC-257 melanoma) was over 100 µM and the TGI (NCI-H522 lung) was over 100 µM. The TGI (COLO 205 colon) was over 100 µM, the TGI (NCI-H23 lung) was over 100 µM and the TGI (T-47D breast) was over 100 µM. The TGI (HT29 colon) was over 100 µM, the TGI (HOP-92 NSCLC) was over 100 µM and the TGI (SW-620 colon) was over 100 µM. For the same compound, the TGI (U251 CNS) was over 100 µM, the TGI (IGROV1 ovarian) was over 100 µM and the TGI (786-0 renal) was over 100 µM. The TGI (MOLT-4 leukemia) was over 100 µM, the TGI (BT-549 breast) was over 100 µM and the TGI (HOP-62 NSCLC) was over 100 µM. It also gave a TGI (KM12 colon) of over 100 µM, a TGI (HL-60(TB) leukemia) of over 100 µM and a TGI (UACC-62 melanoma) of over 100 µM. It also gave a TGI (MCF7 breast) of over 100 µM, a TGI (OVCAR-5 ovarian) of over 100 µM and a TGI (EKVX NSCLC) of over 100 µM. The TGI (LOX IMVI melanoma) was over 100 µM, the TGI (PC-3 prostate) was over 100 µM and the TGI (SK-OV-3 ovarian) was over 100 µM. It also gave a TGI (UO-31 renal) of over 100 µM.
